Experimental data from patent US9663513B2, “Pyrimidine PDE10 inhibitors” (Merck Sharp & Dohme Corp., priority 2012, dated 2017).

The compounds below were run against human PDE10A2 (Homo sapiens (Human), UniProt Q9Y233) (assay: PDE10 fluorescence polarization (IMAP FP) inhibition assay). Settings: human PDE10A2 from transfected AD293 cells; FAM-labeled cAMP 50 nM; apparent inhibition constant; read-out: PDE10A Ki.
Type: biochemical
Experimental: The activity of the compounds in accordance with the present invention as PDE10 inhibitors may be readily determined without undue experimentation using a fluorescence polarization (FP) methodology that is well known in the art (Huang, W., et al., J. Biomol Screen, 2002, 7: 215).
In a typical experiment the PDE10 inhibitory activity of the compounds of the present invention was determined in accordance with the following experimental method. PDE10A2 was amplified from human fetal brain cDNA (Clontech, Mountain View, Calif.) using a forward primer corresponding to nucleotides 56-77 of human PDE10A2 (Accession No. AF127480, Genbank Identifier 4894716), containing a Kozak consensus sequence, and a reverse primer corresponding to nucleotides 2406-2413 of human PDE10A2 (Accession No. AF127480, Genbank Identifier 4894716). Amplification with Easy-A polymerase (Stratagene, La Jolla, Calif.) was 95° C. for 2 minutes followed by thirty three cycles of 95° C. for 40 seconds, 55° C. for 30 seconds, and 72° C. for 2 minutes 48 seconds. Final extension was 72° C. for 7 minutes. The PCR product was TA cloned into pcDNA3.2-TOPO (Invitrogen, Carlsbad, Calif.) according to standard protocol. AD293 cells with 70-80% confluency were transiently transfected with human PDE10A2/pcDNA3.2-TOPO using Lipofectamine 2000 according to manufacturer specifications (Invitrogen, Carlsbad, Calif.). Cells were harvested 48 hours post-transfection and lysed by sonication (setting 3, 10×5 sec pulses) in a buffer containing 20 mM HEPES, 1 mM EDTA and protease inhibitor cocktail (Roche). Lysate was collected by centrifugation at 75,000×g for 20 minutes. Supernatant containing the cytoplasmic fraction was used for evaluation of PDE10A2 activity. The fluorescence polarization assay for cyclic nucleotide phosphodiesterases was performed using an IMAP® FP kit supplied by Molecular Devices, Sunnyvale, Calif. (product # R8139). IMAP® technology has been applied previously to phosphodiesterase assays (Huang, W., et al., J. Biomol Screen, 2002, 7: 215). Assays were performed at room temperature in 384-well microtiter plates with an incubation volume of 20.2 μL. Solutions of test compounds were prepared in DMSO and serially diluted with DMSO to yield 8 μL of each of 10 solutions differing by 3-fold in concentration, at 32 serial dilutions per plate. […] 0% of inhibition is determined by using DMSO (1% final concentrations).
A Labcyte Echo 555 (Labcyte, Sunnyvale, Calif.) is used to dispense 200 nL from each well of the titration plate to the 384 well assay plate. A solution of enzyme (1/1600 dilution from aliquots; sufficient to produce 20% substrate conversion) and a separate solution of FAM-labeled cAMP PDE from Molecular Devices (product # R7506), at a final concentration of 50 nM are made in the assay buffer (10 mM Tris HCl, pH 7.2, 10 mM MgCl2, 0.05% NaN3 0.01% Tween-20, and 1 mM DTT). The enzyme and the substrate are then added to the assay plates in two consecutive additions of 10 μL, and then shaken to mix. The reaction is allowed to proceed at room temperature for 30 minutes. […] The enzymatic reaction is stopped by addition of 60 μL of the binding solution to each well of the assay plates and the plates are sealed and shaken for 10 seconds. The plate was incubated at room temperature for at least one hour prior to determining the fluorescence polarization (FP). The parallel and perpendicular fluorescence of each well of the plate was measured using a Perkin Elmer EnVision™ plate reader (Waltham, Mass.).
Fluorescence polarization (mP) was calculated from the parallel (S) and perpendicular (P) fluorescence of each sample well and the analogous values for the median control well, containing only substrate (So and Po), using the following equation: Polarization(mP)=1000*(S/So−P/Po)/(S/So+P/Po).
Dose-inhibition profiles for each compound were characterized by fitting the mP data to a four-parameter equation given below.

Chain of human PDE10A2 (Q9Y233 267-1055): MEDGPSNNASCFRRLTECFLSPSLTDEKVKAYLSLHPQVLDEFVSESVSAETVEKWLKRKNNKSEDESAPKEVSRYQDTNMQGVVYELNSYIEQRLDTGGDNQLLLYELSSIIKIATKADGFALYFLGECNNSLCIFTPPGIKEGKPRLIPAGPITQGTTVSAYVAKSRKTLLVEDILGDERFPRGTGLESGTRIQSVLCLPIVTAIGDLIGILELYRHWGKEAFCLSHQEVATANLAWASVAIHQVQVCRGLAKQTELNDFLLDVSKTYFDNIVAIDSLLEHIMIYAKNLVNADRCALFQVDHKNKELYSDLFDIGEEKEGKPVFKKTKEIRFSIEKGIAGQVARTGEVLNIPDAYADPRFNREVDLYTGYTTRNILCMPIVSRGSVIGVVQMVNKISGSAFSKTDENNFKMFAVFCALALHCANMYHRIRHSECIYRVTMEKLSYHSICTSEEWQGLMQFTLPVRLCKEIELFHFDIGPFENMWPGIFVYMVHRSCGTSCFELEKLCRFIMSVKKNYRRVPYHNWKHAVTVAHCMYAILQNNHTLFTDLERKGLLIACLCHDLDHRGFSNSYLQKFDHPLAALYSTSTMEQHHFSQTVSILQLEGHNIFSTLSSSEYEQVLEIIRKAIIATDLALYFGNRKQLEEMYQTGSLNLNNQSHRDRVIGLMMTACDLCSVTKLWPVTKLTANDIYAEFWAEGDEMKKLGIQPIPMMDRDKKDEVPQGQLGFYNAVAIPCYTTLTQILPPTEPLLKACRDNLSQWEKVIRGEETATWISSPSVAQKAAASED

| Ki [nM] | SMILES |
| --- | --- |
| 1.11 | Cc1ccc([C@H]2C[C@@H]2COc2nc(C)ncc2-c2ccc(F)c(F)c2)nc1 [Example 15, 5-(3,4-difluorophenyl)-2-methyl-4-(((1S,2S)-2-(5-methylpyridin-2-yl)cyclopropyl)methoxy)pyrimidine] |
| 0.74 | COc1ncccc1-c1cnc(C)nc1OC[C@H]1C[C@@H]1c1ccc(C)cn1 [Example 16, 5-(2-methoxypyridin-3-yl)-2-methyl-4-(((1S,2S)-2-(5-methylpyridin-2-yl)cyclopropyl)methoxy)pyrimidine] |
| 0.59 | Cc1ccc([C@H]2C[C@@H]2COc2nc(C)ncc2-c2ccncc2C(F)(F)F)nc1 [Example 17, 2-methyl-4-(((1S,2S)-2-(5-methylpyridin-2-yl)cyclopropyl)methoxy)-5-(3-(trifluoromethyl)pyridin-4-yl)pyrimidine] |
| 0.55 | Cc1ccc([C@H]2C[C@@H]2COc2nc(C)ncc2-c2ccnc(F)c2)nc1 [Example 19, 5-(2-fluoropyridin-4-yl)-2-methyl-4-(((1S,2S)-2-(5-methylpyridin-2-yl)cyclopropyl)methoxy)pyrimidine] |
| 0.33 | COc1ccc([C@H]2C[C@@H]2COc2nc(C)ncc2-c2ccnc(F)c2)nc1 [Example 21, 5-(2-fluoropyridin-4-yl)-4-(((1S,2S)-2-(5-methoxypyridin-2-yl)cyclopropyl)methoxy)-2-methylpyrimidine] |
| 0.02 | Cc1ccc(-c2cnc(C)nc2OC[C@H]2C[C@@H]2c2ccc3ccccc3n2)cn1 [Example 42, 2-((1S,2S)-2-((2-methyl-5-(6-methylpyridin-3-yl)pyrimidin-4-yloxy)methyl)cyclopropyl)quinoline] |
| 0.02 | Cc1ccc([C@H]2C[C@@H]2COc2nc(C)ncc2-c2cnc(C(C)(C)O)cc2C)nc1 [Example 45, 2-(4-Methyl-5-(2-methyl-4-(((1S,2S)-2-(5-methylpyridin-2-yl)cyclopropyl)methoxy)pyrimidin-5-yl)pyridin-2-yl)propan-2-ol] |
| 2.2 | COC(=O)c1ccc(-c2cnc(C)nc2OC[C@H]2C[C@@H]2c2ccc(C)cn2)cn1 [Example 47, methyl 5-(2-methyl-4-(((1S,2S)-2-(5-methylpyridin-2-yl)cyclopropyl)methoxy)pyrimidin-5-yl)picolinate] |
| 3.25 | Cc1ccc([C@H]2C[C@@H]2COc2nc(C)ncc2-c2ccc3[nH]ccc3c2)nc1 [Example 48, 5-(2-methyl-4-(((1S,2S)-2-(5-methylpyridin-2-yl)cyclopropyl)methoxy)pyrimidin-5-yl)-1H-indole] |
| 22.4 | Cc1ccc([C@H]2C[C@@H]2COc2nc(C)ncc2-c2cccoc2=O)nc1 [Example 49, 3-(2-methyl-4-(((1S,2S)-2-(5-methylpyridin-2-yl)cyclopropyl)methoxy)pyrimidin-5-yl)-2H-pyran-2-one] |
| 4.28 | Cc1ccc([C@H]2C[C@@H]2COc2nc(C)ncc2-c2ccc(=O)oc2)nc1 [Example 50, 5-(2-methyl-4-(((1S,2S)-2-(5-methylpyridin-2-yl)cyclopropyl)methoxy)pyrimidin-5-yl)-2H-pyran-2-one] |
| 1.96 | Cc1ccc([C@H]2C[C@@H]2COc2nc(C)ncc2C2=CCOCC2)nc1 [Example 51, 5-(3,6-dihydro-2H-pyran-4-yl)-2-methyl-4-(((1S,2S)-2-(5-methylpyridin-2-yl)cyclopropyl)methoxy)pyrimidine] |
| 2.36 | COc1nncc(-c2cnc(C)nc2OC[C@H]2C[C@@H]2c2ccc(C)cn2)c1Cl [Example 52, 4-chloro-3-methoxy-5-(2-methyl-4-(((1S,2S)-2-(5-methylpyridin-2-yl)cyclopropyl)methoxy)pyrimidin-5-yl)pyridazine] |
| 25.5 | Cc1ccc([C@H]2C[C@@H]2COc2nc(C)ncc2-c2cc(O)ccn2)nc1 [Example 53, 2-(2-methyl-4-(((1S,2S)-2-(5-methylpyridin-2-yl)cyclopropyl)methoxy)pyrimidin-5-yl)pyridin-4-ol] |
| 10.4 | C=Cc1cnc(C)nc1OC[C@H]1C[C@@H]1c1ccc(C)cn1 [Example 54, 2-methyl-4-(((1S,2S)-2-(5-methylpyridin-2-yl)cyclopropyl)methoxy)-5-vinylpyrimidine] |
| 0.87 | Cc1ccc([C@H]2C[C@@H]2COc2nc(C)ncc2-c2cnc(C)cc2C)nc1 [Example 55, 5-(4,6-dimethylpyridin-3-yl)-2-methyl-4-(((1S,2S)-2-(5-methylpyridin-2-yl)cyclopropyl)methoxy)pyrimidine] |
| 6.12 | COc1cc(-c2cnc(C)nc2OC[C@H]2C[C@@H]2c2ccc(C)cn2)cnn1 [Example 56, 3-methoxy-5-(2-methyl-4-(((1S,2S)-2-(5-methylpyridin-2-yl)cyclopropyl)methoxy)pyrimidin-5-yl)pyridazine] |
| 0.57 | COCCOc1ccc(-c2cnc(C)nc2OC[C@H]2C[C@@H]2c2ccc(C)cn2)cn1 [Example 57, 5-(6-(2-methoxyethoxy)pyridin-3-yl)-2-methyl-4-(((1S,2S)-2-(5-methylpyridin-2-yl)cyclopropyl)methoxy)pyrimidine] |
| 3.02 | Cc1ccc([C@H]2C[C@@H]2COc2nc(C)ncc2-c2cnnc(C)c2)nc1 [Example 58, 3-methyl-5-(2-methyl-4-(((1S,2S)-2-(5-methylpyridin-2-yl)cyclopropyl)methoxy)pyrimidin-5-yl)pyridazine] |
| 4.34 | Cc1ccc([C@H]2C[C@@H]2COc2nc(C)ncc2-c2cnnc(Br)c2)nc1 [Example 59, 3-bromo-5-(2-methyl-4-(((1S,2S)-2-(5-methylpyridin-2-yl)cyclopropyl)methoxy)pyrimidin-5-yl)pyridazine] |
| 13.9 | Cc1ccc([C@H]2C[C@@H]2COc2nc(C)ncc2C2=CC(=O)OC2)nc1 [Example 60, 4-(2-methyl-4-(((1S,2S)-2-(5-methylpyridin-2-yl)cyclopropyl)methoxy)pyrimidin-5-yl)furan-2(5H)-one] |
| 1.51 | Cc1ccc([C@H]2C[C@@H]2COc2nc(C)ncc2-c2ccc(OC(C)C)nc2C)nc1 [Example 61, 5-(6-isopropoxy-2-methylpyridin-3-yl)-2-methyl-4-(((1S,2S)-2-(5-methylpyridin-2-yl)cyclopropyl)methoxy)pyrimidine] |
| 2.02 | Cc1ccc([C@H]2C[C@@H]2COc2nc(C)ncc2-c2cnsc2)nc1 [Example 62, 4-(2-methyl-4-(((1S,2S)-2-(5-methylpyridin-2-yl)cyclopropyl)methoxy)pyrimidin-5-yl)isothiazole] |
| 2.95 | COc1ccc([C@H]2C[C@@H]2COc2nc(C)ncc2-c2ccc(S(C)(=O)=O)nc2)nc1 [Example 63, 4-(((1S,2S)-2-(5-methoxypyridin-2-yl)cyclopropyl)methoxy)-2-methyl-5-(6-(methylsulfonyl)pyridin-3-yl)pyrimidine] |
| 3.14 | COc1ccc([C@H]2C[C@@H]2COc2nc(C)ncc2-c2cnc(C(C)(C)O)cn2)nc1 [Example 66, 2-(5-(4-(((1S,2S)-2-(5-methoxypyridin-2-yl)cyclopropyl)methoxy)-2-methylpyrimidin-5-yl)pyrazin-2-yl)propan-2-ol] |
| 0.94 | COc1ccc([C@H]2C[C@@H]2COc2nc(C)ncc2-c2ccc(O)nc2)nc1 [Example 69, 5-(4-(((1S,2S)-2-(5-methoxypyridin-2-yl)cyclopropyl)methoxy)-2-methylpyrimidin-5-yl)pyridin-2-ol] |
